Test results: patent EP0572271B1, “Acyl lactylates as antimicrobial actives” (UNILEVER PLC, priority 1992, dated 1993)

Experiments:
aspergillus niger = conditions: statement in words on prior art US patent 3,275,503; cited from earlier work
[1] = test system: several types of bacteria; conditions: statement in words on prior art US patent 3,275,503; cited from earlier work
Pseudomonas cepacia = assay: Challenge test with repeated bacterial inoculation of preserved compositions; type: cell-based
Method: (§1) This test involved incubating under standard conditions test compositions which have been inoculated with a selected bacterium, yeast or a mixture of moulds. […] Accordingly, the higher the number of "challenges", the better is the preservative substance in preventing or at least delaying microbial spoilage.
(§2) The microorganisms selected for this test were: • i) Pseudomonas cepacia - a gram-negative bacterium, • ii ) Aspergillus niger & Penicillium notatum, - a mixture of moulds.
For the bacterium the method of testing was as follows: • i) Introduce aseptically 99ml of test composition into a 250ml flask and add 1ml of inoculum of one of the test organisms (see above), to provide a dilution of 10^6 cells/ml in the composition. • ii) mix and incubate at 28°C for 24 hours. • iii) remove 1ml of incubated composition from the flask and add to it as diluent 9ml of an aqueous solution containing 0.1% by weight peptone and 2% by weight Tween 80, and mix thoroughly. • iv) place 1ml of diluted sample into a petri dish and add warm, molten agar (40°C) and mix to distribute culture uniformly and allow to set. • v) incubate plates for 3 days at 28°C and then count colonies and note log reduction of count (due to the presence of the preservative in the original culture composition).
The inoculation of the organisms originally introduced into each composition is then repeated at 24 hour intervals, following removal of the first total viable count sample, the plating out and counting procedure being repeated on each occasion. The test is terminated when the samples show a contamination level greater than 10^2 counts per ml on 2 consecutive days. This point is regarded as the failure point for the composition under test.
The greater the number of inoculations of contaminant organisms before this level of contamination is established in the composition, the better the preservative system.

[2] = test system: Aspergillus niger & Penicillium notatum; assay: Mould challenge test: mould spore suspension inoculated into preserved compositions; type: cell-based; conditions: Example 2: oil-in-water emulsion, pH 5.5, material usually 1.0 wt%; for Mould challenge 1%: 1% by volume spore suspension; for Mould challenge 10%: 10% by volume spore suspension
Method: as §1, §2
The above procedure applies to the inoculation of the bacterium. For testing with the mixed culture of moulds this procedure was varied slightly, as follows:
Two samples of each test composition (9.9ml and 9ml) were transferred to sterile flasks and 0.1ml or 1ml, (i.e. 1% or 10% by volume) of a mould spore suspension (approximately 10^8 spores per ml) was introduced into the respective samples and thoroughly mixed. The inoculated samples were incubated at 28°C for up to 28 days with 1ml samples being aseptically removed for the total viable count as outlines above using Sabourand's dextrose agar after 1, 7, and 28 days.
A composition is classed as "low risk" if mould spores are eliminated in 1 to 2 days. "Medium risk" compositions take 7 to 14 days to eliminate the spores and "high risk" compositions still have surviving mould spores after 14 days incubation.

[3] = Example 2: oil-in-water emulsion, pH 5.5, material usually 1.0 wt%
[4] = Example 3: shampoo formulation, pH 6.0, material added 1 wt%

Compound: CCCCCCCCCC(=O)OC(C)C(=O)OC(C)C(=O)[O-].CCCCCCCCCC(=O)OC(C)C(=O)OC(C)C(=O)[O-].[Ca+2] (stereo not drawn) [calcium capryl-2 lactylate]
- efficacy to inhibit the growth of moulds, like aspergillus niger (aspergillus niger): leaves much to be desired
- effectiveness against several types of bacteria [1]: very effective

Compound: CCCCCCCCCCCC(=O)O [Lauric acid]
- No of inoculations to failure (Bacteria) (Pseudomonas cepacia; [3]): 1
- No of inoculations to failure (Bacteria) (Pseudomonas cepacia; [4]): 1
- Mould challenge 1% [2]: ++++
- Mould challenge 10% [2]: ++++

Compound: CCCCCCCCCCCC(=O)OCC(O)CO (stereo not drawn) [Monolaurin]
- No of inoculations to failure (Bacteria) (Pseudomonas cepacia; [3]): 1
- No of inoculations to failure (Bacteria) (Pseudomonas cepacia; [4]): 1
- Mould challenge 1% [2]: ++++
- Mould challenge 10% [2]: ++++

Compound: Octanoyl lactylate
- No of inoculations to failure (Bacteria) (Pseudomonas cepacia; [3]): 20
- No of inoculations to failure (Bacteria) (Pseudomonas cepacia; [4]): 2
- Mould challenge 1% [2]: +
- Mould challenge 10% [2]: ++++

Compound: CC(C)=CCCC(C)=CCCC(C)=CCO [Farnesol]
- No of inoculations to failure (Bacteria) (Pseudomonas cepacia; [3]): 1
- Mould challenge 1% [2]: ++++
- Mould challenge 10% [2]: ++++

Compound: CCCCCC(=O)OC(C)C(=O)O (stereo not drawn) [Hexanoyl lactylate]
- No of inoculations to failure (Bacteria) (Pseudomonas cepacia; [3]): >21
- No of inoculations to failure (Bacteria) (Pseudomonas cepacia; [4]): >21
- Mould challenge 1% [2]: +
- Mould challenge 10% [2]: +
